Data on three compounds can be found in paper PMC8152814, “The modulatory role of sulfated and non-sulfated small molecule heparan sulfate-glycomimetics in endothelial dysfunction: absolute structural clarification, molecular docking and simulated dynamics, SAR analyses and ADMET studies” (RSC Medicinal Chemistry, 2021).

Holding throughout (assay type): cell-based, human
Holding throughout (settings): averaged % of increase (+) or decrease (−) compared to control (FFA induced oxidatively stressed endothelial cells), n = 3

For one experiment, the system named is nitric oxide (NO). The experiment in a line: NO release assay (DAF-2) in FFA-stressed cells. The text has this: (§1) The assays focused on the production of nitric oxide (NO) and the upregulation of nitric oxide synthase (eNOS), the production of reactive oxygen species (ROS) and the activity of nicotinamide adenine dinucleotide phosphate (NADPH) oxidase (Table 2). From the hypothesised model of heparan sulfate-glycomimetic activity,[17] the glycomimetics are proposed to attenuate the binding of HGF to the cMET receptor. This disruption to MET-receptor activation is proposed to modulate intracellular phosphorylation leading to an upregulation of eNOS and increased output of extracellular NO. […] Overall, the cross examination of NO output and reduction of ROS was used to determine the therapeutic action of the triaged glycomimetics α-4, R-10, S-10 and β-5, as well as 3 non-sulfated intermediates α-2, α-3 and β-3, on free fatty acid (FFA) induced, oxidatively stressed endothelial cell cultures (Table 2).
(§2) Biological assay and AMDET experimental details […]
(§3) Preparation of FFA-albumin complexes and cell treatments
(§4) To generate the in vitro model of oxidative stress, sodium palmitate was bound to bovine serum albumin (BSA) as outlined by Chavez and Summers,S2 with modifications. Sodium palmitate (FFA) was dissolved in EtOH at 60 °C and diluted 1:100 in M199 media supplemented with 2% fatty acid-free bovine serum albumin (BSA) and incubated for 1 h at 37 °C. HepG2 cells were treated with 1 μmol/L of the synthesized HS-glycomimetics in the presence of palmitate (100 μmol/L) for 3 h or pre-treated with glycomimetics for 12 h followed by 3 h palmitate (100 μmol/L). Control cells were incubated in serum free M199 containing 2% (wt/vol) fatty acid-free BSA.
NO release assay and Quantification of ROS production
NO release was determined using diaminofluorescein-2 (DAF-2).S3 The cells were washed with PBS and incubated with L-arginine (100 μmol/L in PBS) for 5 min at 37 °C before incubation with DAF-2 (0.1 μmol/L) for 2 min, followed by the calcium ionophore calimycin (A23187, 1 μmol L) for 30 min. L-NAME (100 μmol/L), a nitric oxide inhibitor (NOS), was also added 20 min before the addition of L-arginine in some experiments to determine the involvement of NOS. DAF-2 fluorescence (arbitrary units, AU) was quantified using a microplate reader (BioTek) with excitation and emission wavelengths of 485 nm and 540 nm, respectively. The auto-fluorescence was subtracted from each value. […]
(§5) H2DCFDA, Sigma) for 30 min at 37 °C, and the level of fluorescence was determined (excitation 490 nm; emission 540 nm) using a microplate reader (BioTek).
(§6) The level of NADPH-enhanced superoxide anions (O2•−) in HepG2 homogenates was determined by lucigenin-enhanced chemiluminescence.S4 Following the various treatment conditions, cells were homogenized in a buffer (20 mmol/L H2KPO4 and 1 mmol/L EDTA supplemented with aprotinin, leuprotinin, pepstatin and PMSF). The total protein quantified using the Bicinchoninic acid (BCA) assay (Pierce Biotechnology). To 50 μg of total protein, NADPH (100 μmol/L) was added in a total volume of 500 μL, with lucigenin (5 μmol/L) and was injected automatically. Activity was determined by measuring luminescence over 200 s in a scintillation counter (Lumat LB 9507, Berthold, Germany). Basal values of NADPH oxidase activity were subtracted from the experimental values and expressed as RLU/min/μg protein […]
(§7) In situ quantification of ROS species
(§8) Superoxide dismutase (SOD) and catalase (CAT) activity assays, and in situ detection of vascular ROS content. The activity of the enzymes, SOD and CAT, was determined in cell homogenates using assay kits according to the manufacturer's instructions (Cayman; Cat No 706002 and 707002 respectively). A unit of SOD was defined as the amount of enzyme […]
(§9) Similarly, a unit of CAT was […]
(§10) defined as the amount required to form 1.0 nmol of formaldehyde per min at 25 °C.S5

For experiment [1], the system named is reactive oxygen species (ROS). Kind of experiment: ROS production in FFA-stressed cells.
From the text: as §1, §2, §3, §4
NO release assay and Quantification of ROS production […]
The auto-fluorescence was subtracted from each value. Cells were incubated with 10 μmol/L of the fluorescent probe: 2′-7′-dichlorodihydrofluorescein diacetate (CM-H2DCFDA, Sigma) for 30 min at 37 °C, and the level of fluorescence was determined (excitation 490 nm; emission 540 nm) using a microplate reader (BioTek).
as §6, §7, §8, §9
defined as the amount required to form 1.0 nmol of formaldehyde per min at 25 °C.S5 […]
HepG2 cells were incubated in serum-free DMEM containing 2% fatty acid-free BSA (control) or palmitate conjugated BSA (100 μmol/L) in the presence of HS-glycomimetics (1 or 10 μmol/L) for 24 h. The cells were incubated for 30 min in Hepes-buffered solution containing 10 μmol/L dihydroethidium (DHE), which intercalates with DNA in the presence of ROS and is detectable by fluorescence. Cells were counterstained with the nuclear stain DAPI at 0.3 μmol/L. In the following 24 h, the cell cultures were examined using a fluorescence microscope (Leica DMIRB). Sections were photographed and fluorescence was quantified using ImageJ. […]

A further experiment has as its system NADPH oxidase. The experiment in a line: NADPH oxidase activity (lucigenin chemiluminescence) in cell homogenates. Also noted: concentration or dose not given beside the values.
From the text: as §1, §2, §3
as §4, with “BSA. […]” for “BSA.”
as §5, §6, §7, §8, §9, §10

Another experiment deals with eNOS. Kind of experiment: eNOS phosphorylation (Western blot) in FFA-stressed cells.
From the text: as §1, §2, §3
as §4, with “BSA. […]” for “BSA.”
HepG2 wells were lysed in RIPA buffer containing proteinase inhibitors and the total protein was quantified using BCA protein assay kit (Pierce Biotechnology). Proteins (30 μg/well) were denatured and separated by sodium dodecyl sulfate (SDS)-polyacrylamide gel electrophoresis and transferred to polyvinylidene difluoride (PVDF) membranes. Blots were blocked for 1 h in 5% semi-skimmed milk/Tris-Buffered Saline Tween-20 (TBS-T), probed with primary rabbit anti-phospho-protein kinase B (Akt), rabbit anti-Akt (Santa Cruz Biotechnology), rabbit polyclonal anti-phospho-eNOS (Cell Signaling) overnight at 4 °C followed by washing and incubation with the corresponding horse radish peroxidase-labelled secondary antibody for 1 h at room temperature. After washing with TBS-T, membranes were incubated with ECL reagent and visualized (Amersham Pharmacia Biotech). Densitometry analysis using ImageJ© (version 1.32j, NIH) was used to quantify the protein signal.S7 […]
(typically 0.01 M phosphate buffered saline pH 7.4) so that the final DMSO concentration is 1 % and the final test compound concentrations are 1, 3, 10, 30 and 100 µM. The experiment is performed at 37 °C and each concentration is incubated in 7 replicate wells. The plates are incubated for 2 h at 37 °C before the absorbance is measured at 620nm. Nicardipine (pH dependent) and pyrene (pH independent) are included as control compounds. The solubility is estimated from the concentration of test compound that produces an increase in absorbance above vehicle control (1% DMSO in buffer).

Turning to `O=C(O)c1cc(OCC(O)CO)ccc1OCC(O)CO` (mixture of isomers) [α-3, sodium 5-((R)-2,3-dihydroxypropoxy)-2-((±)-2,3-dihydroxypropoxy)benzoate], in the experiment on nitric oxide (NO), the NO production entry is “+41%”. Further, the ROS production in experiment [1] is reported as −23%. Also, in the experiment on NADPH oxidase, the NADPH oxidase activity is −21%. In addition, the eNOS phosphorylation result in the experiment with eNOS was “+312%”.
Take `COC(=O)c1cc(OC[C@H](O)CO)ccc1OC[C@@H](O)CO` (mixture of isomers) [α-2, methyl 5-((R)-2,3-dihydroxypropoxy)-2-((S)-2,3-dihydroxypropoxy)benzoate]: the NO production entry in the experiment with nitric oxide (NO) is “+46%”. For the same compound, in experiment [1], the ROS production is on record as −36%. In addition, the NADPH oxidase activity in the experiment with NADPH oxidase was −26%. Besides, the eNOS phosphorylation entry with eNOS is reported as “+286%”.
For `O=C(O)c1cc(OCC(O)CO)ccc1OCC(O)CO` (mixture of isomers) [β-3, sodium 5-((S)-2,3-dihydroxypropoxy)-2-((±)-2,3-dihydroxypropoxy)benzoate], in that order: “+52%”, −19%, −27% and “+294%”.
